# Reference: ChEMBL document CHEMBL1136293, “Synthesis and evaluation of tripeptidyl alpha-ketoamides as human rhinovirus 3C protease inhibitors” (Bioorg Med Chem Lett, 2003)
# Experiments:
# [1] = tested on: rhinovirus B14; assay: (§1) Antiviral activity against human rhinovirus-14 (HRV-14) in HeLa-cells using cell assay; format: functional, organism-based, human rhinovirus type 14; details: Rhinovirus B
# [2] = biological target: T1, Human rhinovirus A protease (Human rhinovirus sp., UniProt Q4U254); assay: Antiviral activity against human rhinovirus-14 (HRV-14) 3C protease using enzyme assay; format: functional, rhinovirus B14
# T1 sequence (Q4U254 whole entry): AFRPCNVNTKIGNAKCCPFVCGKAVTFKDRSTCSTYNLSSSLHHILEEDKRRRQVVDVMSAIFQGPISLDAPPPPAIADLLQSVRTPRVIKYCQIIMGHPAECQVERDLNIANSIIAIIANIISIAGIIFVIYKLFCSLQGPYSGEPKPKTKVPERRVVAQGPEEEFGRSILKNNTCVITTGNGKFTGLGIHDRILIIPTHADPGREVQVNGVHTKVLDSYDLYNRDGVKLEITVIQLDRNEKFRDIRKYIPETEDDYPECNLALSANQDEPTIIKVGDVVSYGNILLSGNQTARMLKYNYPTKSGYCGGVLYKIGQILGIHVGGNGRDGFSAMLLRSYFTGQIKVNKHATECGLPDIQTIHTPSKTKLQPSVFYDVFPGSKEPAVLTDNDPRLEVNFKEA
# [3] = tested on: HeLa; assay: Cytotoxicity against HeLa cells was determined by using XTT cytotoxicity assay; format: functional; details: Homo sapiens, read-out: TC50 (the source's name)
# [4] = tested on: HeLa; assay: Antiviral activity against human rhinovirus-16 (HRV-16) in HeLa-cells using cell assay; inactive; format: functional, cell-based
# [5] = biological target: T1, Human rhinovirus A protease; assay: Antiviral activity against human rhinovirus-14 (HRV-14) 3C protease using enzyme assay; inactive; format: functional, rhinovirus B14
# [6] = tested on: HeLa; assay: Antiviral activity against human rhinovirus-16 (HRV-16) in HeLa-cells using cell assay; format: functional, cell-based
# [7] = tested on: HeLa; assay: as §1; format: functional, cell-based
Structure (SMILES),EC50 [1] [µM],Ki [2] [µM],CC50 [3] [µM],EC50 [4],Ki [5],EC50 [6] [µM],IC50 [7] [µM],IC50 [2] [µM]
CCC[C@H](NC(=O)[C@H](Cc1ccccc1)NC(=O)[C@@H](NC(=O)OC(C)(C)C)C(C)C)C(=O)N[C@@H](C)c1ccccc1,> 20,7.4,> 100,,,,,
CCC[C@H](NC(=O)[C@H](Cc1ccccc1)NC(=O)[C@@H](NC(=O)OC(C)(C)C)C(C)C)C(=O)NC[C@H](C)c1ccccc1,> 15,29.1,> 100,,,,,
CCCC(NC(=O)C1(NC(=O)[C@@H](NC(=O)OC(C)C)C(C)C)CCCC1)C(=O)C(=O)N[C@@H](C)c1ccccc1 (some centres not stated),> 20,,> 100,Not Active,Not Active,,,
CCCC(NC(=O)[C@@H]1[C@H]2CCC[C@H]2CN1C(=O)[C@@H](NC(=O)OC(C)C)C(C)(C)C)C(=O)C(=O)N[C@@H](C)c1ccccc1 (some centres not stated),7.7,,57.8,,,25.7,,
CCC[C@H](NC(=O)[C@H](Cc1ccccc1)NC(=O)[C@@H](NC(=O)OC(C)C)C(C)C)C(=O)C(=O)N[C@@H](C)C1CCCCC1,> 20,6.5,54.6,,,,,
CCCC(NC(=O)C1CCCN1C(=O)[C@@H](NC(=O)OC(C)C)C(C)C)C(=O)C(=O)N[C@@H](C)c1ccccc1 (some centres not stated),10.4,17.4,> 100,,,43.3,,
CCCC(NC(=O)[C@@H]1[C@H]2CCC[C@H]2CN1C(=O)[C@@H](NC(=O)OC(C)C)C(C)C)C(=O)C(=O)N[C@@H](C)c1ccccc1 (some centres not stated),2.2,3,65.4,,,~10,,
CCC[C@H](NC(=O)[C@H](Cc1ccccc1)NC(=O)[C@@H](NC(=O)OC(C)(C)C)C(C)C)C(=O)C(=O)N[C@H](C)c1ccccc1,1.3,0.71,30.3,,,,,
CCC[C@H](NC(=O)[C@H](Cc1ccccc1)NC(=O)[C@@H](NC(=O)OC(C)C)C(C)C)C(=O)C(=O)NCc1ccccc1,5.3,4.6,> 100,,,,2.7,
CCCC(NC(=O)C(Cc1ccccc1)NC(=O)[C@@H](NC(=O)OC(C)C)C(C)C)C(=O)C(=O)N[C@@H](C)c1ccccc1 (some centres not stated),1,0.5,62,,,10.1,,
CCCC(NC(=O)C(Cc1ccc(F)cc1)NC(=O)[C@@H](NC(=O)OC(C)C)C(C)C)C(=O)C(=O)N[C@@H](C)c1ccccc1 (some centres not stated),2.1,1.36,> 100,,,37.3,,
CCCC(NC(=O)[C@@H]1[C@H]2CC[C@H](F)[C@H]2CN1C(=O)[C@@H](NC(=O)OC(C)C)C(C)(C)C)C(=O)C(=O)N[C@@H](C)c1ccccc1 (some centres not stated),10,9.8,60.4,,,,,
CCC[C@H](NC(=O)[C@H](Cc1ccccc1)NC(=O)[C@@H](NC(=O)OC(C)C)C(C)C)C(=O)C(=O)N[C@@H](C)c1ccccc1,0.85,0.17,> 100,,,~10,,0.17
CCCC(NC(=O)[C@@H]1[C@H]2CC[C@H](F)[C@H]2CN1C(=O)[C@@H](NC(=O)OC(C)C)C(C)C)C(=O)C(=O)N[C@@H](C)c1ccccc1 (some centres not stated),5.8,5.5,82,,,,,
CCC[C@H](NC(=O)[C@H](Cc1ccccc1)NC(=O)[C@@H](NC(=O)OC(C)C)C(C)C)C(=O)C(=O)N[C@H](C)c1ccccc1,11.1,6.5,,,,,,
